Assay results taken from EP0211584A1, “Antihypertensive agents” (AMERICAN HOME PRODUCTS CORPORATION, priority 1985, dated 1987).

Legend:
[1] = test system: rabbit aortic smooth muscle; assay: Ca+2 antagonism: relaxation of KCl-depolarized rabbit aortic smooth muscle strips; conditions: Oryctolagus cuniculus, 20 min, compound 1 x 10^-5M; 100mM KCl contraction; 20 minutes after addition; mean of two experiments; read-out: P.R. (percent relaxation of aortic tissue)
Procedure: The composition of PSS was as follows (mM): NaCl 112,KCI 5, NaHCO3 25 KH2PO4 1, MgSO4 1.2, CaCl2 2.5, dextrose 10. The lower end of each tissue strip was attached to a fixed post and the upper end to a Statham UC-4 transducer. Changes in force development were recorded on a Beckman Dynograph Polygraphic Recorder.
Following equilibration, the muscles were contracted in a depolarizing solution of PSS in which 100mM KCI was substituted for an equimolar concentration of NaCI. Following attainment of steady- state isometric force (20 min.), the test compound was added to afford a final concentration of 1 x 10^-5M. The inhibitory effect, expressed as percent relaxation, was determined from the mean of two experiments twenty minutes after the addition of the compound being tested.
(§1) The following examples illustrate the preparation of a representative number of compounds of this invention. After each example, the Ca+2 antagonist activity of the compound is presented in terms of percent relaxation of aortic tissue (P.R.) at 10-^5M concentration. […] Inhibition of super- precipitation (Antag. of Actin-Myosin interaction) is expressed as percent inhibition (mean ± standard error of the mean for at least 3 separate experiments) at a compound concentration. In the same manner, inhibition of myosin light chain phosphorylation (Antag. of MLCP) is expressed as a percent inhibition at a compound concentration. Similarly, the antihypertensive activity is reported in terms of millimetres mercury (mmHg) systolic blood pressure (B.P.) reduction at the stated time post 50 mg/kg oral dosing or other dosing as indicated.

[2] = test system: isolated paced intact rabbit atria; assay: Cardiac depressant (negative inotropic) effect in isolated paced rabbit atria; conditions: Oryctolagus cuniculus; rabbit atria paced at 3Hz, 30°C, cumulative dosing; read-out: IC25 (concentration which produces 25% inhibition of isometric force)
Procedure: The potential for detrimental cardiac depressant (negative inotropic) effects of the compounds of this invention was assessed in isolated paced intact rabbit atria. […] Muscles (N=5-9/compound) were stimulated at a frequency of 3Hz with a WPI stimulator for a 60 minute equilibration period. Changes in isometric force were recorded as described for the aortic smooth muscle experiments, supra. […]

[3] = target: Ca^+2-calmodulin dependent myosin light chain phosphorylation (Bos taurus, UniProt Q28824); assay: Inhibition of myosin light chain phosphorylation (MLCP), Silver et al.; format: biochemical; conditions: read-out: Antag. of MLCP (percent inhibition of myosin light chain phosphorylation)
Procedure: The data reported herein was obtained at a six minute time-point rather than the 1.5, 5 and 12 minute time points indicated in the superprecipita- tion assay of the Silver et al paper.
as §1

[4] = test system: spontaneously hypertensive rats; assay: Hypotensive effect: systolic blood pressure of spontaneously hypertensive rats; format: in vivo; conditions: mmHg per method
Procedure: The hypotensive in vivo effect of the compounds of this invention was determined by measuring changes in the systolic blood pressure of spontaneously hypertensive rats with a Decker Caudal Plethysmograph. The compound being tested was administered to a group of 4 rats and their systolic pressure was determined prior to and at 1.5 and 4 hours after compound administration. Initial testing was done by oral administration of the compound. Results (mmHg) are expressed as decreases in systolic blood pressure.
as §1

[5] = test system: arterial actin-myosin interactions; assay: Inhibition of superprecipitation (antagonism of actin-myosin interaction), Silver et al.; format: biochemical; conditions: six minute time-point
Procedure: . The data reported herein was obtained at a six minute time-point rather than the 1.5, 5 and 12 minute time points indicated in the superprecipita- tion assay of the Silver et al paper.
as §1

[6] = dose 25mg/kg oral, at 1.5 hours
[7] = dose 50mg/kg oral, at 1.5 hours
[8] = dose 10mg/kg oral, at 1.5 hours

| Compound | inhibition at 10 µM [1] | IC25 [2] | inhibition at 50 µM [3] | inhibition at 100 µM [3] | B.P. (systolic blood pressure reduction) [4, 6] | B.P. (systolic blood pressure reduction) ([4]; dose 25mg/kg oral, at 4 hours) | Antag. of Actin-Myosin (percent inhibition of superprecipitation) ([5]; 50µM) | Antag. of Actin-Myosin (percent inhibition of superprecipitation) ([5]; 100µM) | inhibition at 25 µM [3] | B.P. (systolic blood pressure reduction) [4, 7] | B.P. (systolic blood pressure reduction) ([4]; dose 50mg/kg oral, at 4 hours) | Antag. of Actin-Myosin (percent inhibition of superprecipitation) ([5]; 25µM) | B.P. (systolic blood pressure reduction) [4, 8] | B.P. (systolic blood pressure reduction) ([4]; dose 10mg/kg oral, at 4 hours) | inhibition at 10 µM ([3]; 10µM) | B.P. (systolic blood pressure reduction) ([4]; dose 5mg/kg oral, at 1.5 hours) | B.P. (systolic blood pressure reduction) ([4]; dose 5mg/kg oral, at 4 hours) | Antag. of Actin-Myosin (percent inhibition of superprecipitation) ([5]; 10µM) |
| --- | --- | --- | --- | --- | --- | --- | --- | --- | --- | --- | --- | --- | --- | --- | --- | --- | --- | --- |
| CC1=C(C(=O)OCCOc2ccccc2)C(c2c(F)c(F)c(F)c(F)c2F)C2=C(CNCC2=O)N1 (single isomer, unassigned; (-)) [Example 3, (-)-1,4,5,6,7,8-Hexahydro-2-methyl-5-oxo-4-(pentafluorophenyl)-1,7-naphthridine-3-carboxylic acid 2-phenoxyethyl ester] | 56% | > 10 µM | 57% | 70% | -6 mm | -14 mm | 65% | 76% | – | – | – | – | – | – | – | – | – | – |
| COC(COC(=O)C1=C(C)NC2=C(C(=O)CNC2)C1c1cccc(Cl)c1Cl)c1ccccc1 (stereo not drawn) [Example 1, 4-(2,3-Dichloroohenyl)-1,4,5,6,7,8-hexahydro-2-methyl-5-oxo-1,7-naphthyridine-3-carboxylic acid 2-methoxy-2-phenylethyl ester] | 32% | 10 µM | 66% | 76 ± 2% | – | – | 75±3% | 83± 3% | 38 ± 3% | -53 mm | -30 mm | 43± 2% | – | – | – | – | – | – |
| CO[C@@H](COC(=O)C1=C(C)NC2=C(C(=O)CNC2)C1c1c(F)c(F)c(F)c(F)c1F)c1ccccc1 (stereo partly drawn) [Example 6, 1,4,5,6,7,8,-Hexahydro-2-methyl-5-oxo-4-(pentafluorophenyl)-1,7-naphthyridine-3-carboxylic acid (R)-2-methoxy-2-phenylethyl ester] | 71% | 0.6 µM | 56% | 70% | – | – | 64% | 74% | – | – | – | – | -56 mm | -49 mm | – | – | – | – |
| CC1=C(C(=O)OCCOc2ccccc2)C(c2ccccc2C)C2=C(CNCC2=O)N1 (stereo not drawn) [Example 15, 1,4,5,6,7,8-Hexahydro-2-methyl-4-(2-methylphenyl)-5-oxo-1,7-naphthyridine-3-carboxylic arid 2-phenoxyethyl ester] | 63% | 4.7 µM | – | – | -29 mm | -39 mm | – | 66±5% | – | – | – | – | – | – | – | – | – | – |
| CO[C@H](COC(=O)C1=C(C)NC2=C(C(=O)CNC2)C1c1c(F)c(F)c(F)c(F)c1F)c1ccccc1 (stereo partly drawn) [Example 7, 1,4,5,6,7,8-Hexahydro-2-methyl-5-oxo-4-(pentafluorophenyl)-1,7-naphthyridine-3-carboxylic acid (S)-2-methoxy-2-ohenylethyl ester] | 68% | 65 µM | 59% | 74% | – | – | 67% | 80% | – | – | – | – | -51 mm | -54 mm | – | – | – | – |
| CC1=C(C(=O)OC(C)COc2ccccc2)C(c2c(F)c(F)c(F)c(F)c2F)C2=C(CNCC2=O)N1 (stereo not drawn) [Example 13, 1,4,5,6,7,8-Hexahydro-2-methyl-5-oxo-4-(pentafluorophenyl)-1,7-naphthylidine-3-carboxylic acid 1-methvl-2-ahenoxvethvl ester] | 46% | 10 µM | – | 70% | – | – | – | 78% | 58% | -35 mm | -60 mm | 61% | – | – | – | – | – | – |
| CC1=C(C(=O)OCCOc2ccccc2)C(c2cccc(Cl)c2Cl)C2=C(CNCC2=O)N1 (stereo not drawn) [Example 19, 4-(2,3-Dichlorophenyl)-1,4,5,6,7,8-hexahydro-2-methyl-5-oxo-1,7-naphthyridine-3-carboxylic acid 2-phenoxyethylester] | 62% | 2.5 µM | – | 69% | – | – | – | 71% | – | -50 mm | -73 mm | – | – | – | – | – | – | – |
| CC1=C(C(=O)OCCOc2cccc(Cl)c2Cl)C(c2c(F)ccc(Cl)c2Cl)C2=C(CNCC2=O)N1 (stereo not drawn) [Example 25, 4-(2,3-dichloro-6-fluorophenyl)-1,4,5,6,7,8-hexahydro-2-methyl-5-oxo-1,7-naphthyridine-3-carboxylic acid 2-(2,3-dichlorophenoxy)ethyl ester] | 59% | 0.7 µM | 60 ± 4% | 67 ± 2.3% | -74 mm | -70 mm | 67±5% | 73±2.4% | 48 ± 3% | – | – | 55±2.5% | – | – | 32 ± 8% | -18 mm | -40 mm | 34±7% |
| COC(COC(=O)C1=C(C)NC2=C(C(=O)CNC2)C1c1ccccc1C(F)(F)F)c1ccccc1 (stereo not drawn) [Example 12, 1,4,5,6,7,8-Hexahydro-2-methyl-5-oxo-4-[2-(trifluoromethyl)phenyl]-1,7-naphthyridine-3-carboxylic acid 2-methoxv-2-ohenvlethvl ester] | 39% | 2 µM | – | 24% | -56 mm | -56 mm | – | 30% | – | – | – | – | – | – | – | – | – | – |
| COC(COC(=O)C1=C(C)NC2=C(C(=O)CNC2)C1c1c(F)c(F)c(F)c(F)c1F)c1ccccc1 (stereo not drawn) [Example 5, 1,4,5,6,7,8-Hexahydro-2-methyl-5-oxo-4-(pentafluorophenyl)-1,7-naphthyridine-3-carboxylic acid 2-methoxy-2-phenylethyl ester] | 71% | 10 µM | 48 ± 2% | 70 ± 3% | – | – | 50±5% | 75±4% | 21 ± 3% | – | – | 20±5% | – | – | – | – | – | – |
